What all share (type): functional
For assay [1], the system named is Escherichia coli. The experiment in a line: Antibacterial activity against Escherichia coli ATCC 25922 assessed as bacterial growth inhibition incubated for 16 to 18 hrs by CLSI based susceptibility testing method. The settings on record: time 16-18 hrs.
Assay [2] has as its system Staphylococcus aureus. The experiment in a line: Antibacterial activity against Staphylococcus aureus ATCC 29213 assessed as bacterial growth inhibition incubated for 16 to 18 hrs by CLSI based susceptibility testing method. To be noted: time 16-18 hrs.
The test system of assay [3] is Klebsiella pneumoniae. Briefly: Antibacterial activity against Klebsiella pneumoniae BAA 1705 assessed as bacterial growth inhibition incubated for 16 to 18 hrs by CLSI based susceptibility testing method. To be noted: time 16-18 hrs.
For assay [4], the system named is Acinetobacter baumannii. Briefly: Antibacterial activity against Acinetobacter baumannii BAA 1605 assessed as bacterial growth inhibition incubated for 16 to 18 hrs by CLSI based susceptibility testing method. The settings on record: time 16-18 hrs.
Assay [5] has as its system Pseudomonas aeruginosa. Briefly: Antibacterial activity against Pseudomonas aeruginosa ATCC 27853 assessed as bacterial growth inhibition incubated for 16 to 18 hrs by CLSI based susceptibility testing method. To be noted: time 16-18 hrs.
The subject of assay [6] is Mycobacterium tuberculosis. The experiment in a line: Antimycobacterial activity against Mycobacterium tuberculosis H37Rv ATCC 27294 assessed as bacterial growth inhibition incubated for 7 days by resazurin dye based assay. To be noted: H37Rv ATCC 27294, 168 h, time 7 day.
Assay [7] deals with Mycobacteroides abscessus. The experiment in a line: Antimycobacterial activity against Mycobacterium abscessus ATCC 19977 assessed as bacterial growth inhibition incubated for 7 days by resazurin dye based assay. To be noted: ATCC 19977, 168 h, time 7 day. (In general: The colour change of resazurin is a common sign of viable cells or microbes.)
The test system of assay [8] is Mycolicibacterium fortuitum. The experiment in a line: Antimycobacterial activity against Mycobacterium fortuitum ATCC 6841 assessed as bacterial growth inhibition incubated for 7 days by resazurin dye based assay. The settings on record: ATCC 6841, 168 h, time 7 day.
The subject of assay [9] is Mycobacteroides chelonae. Briefly: Antimycobacterial activity against Mycobacteroides chelonae ATCC 35752 assessed as bacterial growth inhibition incubated for 7 days by resazurin dye based assay. To be noted: ATCC 35752, 168 h, time 7 day.

Converted amounts (≈) assume the structure as drawn.

As a reminder, the MIC is the smallest concentration in the dilution series that meets the test's criterion for growth inhibition. For the compound `COc1ccc(-n2c(C)cc(/C=C3\S/C(=N/c4nc(C)c(C)s4)NC3=O)c2C)cc1OC`, the MIC in [1] is greater than 64 µg/mL; in assay [2] it was 64 µg/mL (≈ 137 µM); in assay [3] it was greater than 64 µg/mL; in assay [4], greater than 64 µg/mL; in [5], greater than 64 µg/mL; in assay [6], greater than 64 µg/mL. Moreover, the MIC in [7], in assay [8] and in [9] was greater than 64 µg/mL each time.
In the case of `Cc1cc(/C=C2\S/C(=N/c3nccs3)NC2=O)c(C)n1-c1ccc([N+](=O)[O-])c(C(F)(F)F)c1`, the MIC in assay [1], in assay [2], in assay [3], in assay [4], in assay [5] and in assay [6] was greater than 64 µg/mL each time. Further, the MIC in [7], in assay [8] and in assay [9] was greater than 64 µg/mL throughout.
For the compound `Cc1cc(/C=C2\S/C(=N/c3nccs3)NC2=O)c(C)n1-c1ccc(N2CCOCC2)cc1`, the MIC was greater than 64 µg/mL in assay [1]; 16 µg/mL (≈ 34.4 µM) in assay [2]; greater than 64 µg/mL in [3]; greater than 64 µg/mL in assay [4]; greater than 64 µg/mL in assay [5]; 4 µg/mL (≈ 8.59 µM) in assay [6]. The MIC in assay [7], in [8] and in [9] was greater than 64 µg/mL in each case.
`Cc1cc(/C=C2\S/C(=N/c3nccs3)NC2=O)c(C)n1-c1ccccc1O`: the MIC in [1] is greater than 64 µg/mL; in [2] it was 1 µg/mL (≈ 2.52 µM); in assay [3], greater than 64 µg/mL; in assay [4], greater than 64 µg/mL; in [5], greater than 64 µg/mL; in [6] it was 16 µg/mL (≈ 40.4 µM). Moreover, the MIC in assay [7], in assay [8] and in assay [9] was greater than 64 µg/mL throughout.
On to `Cc1nc(/N=C2\NC(=O)/C(=C/c3cc(C)n(-c4cc(Cl)ccc4O)c3C)S2)sc1C`, for which the minimal inhibitory concentration (MIC) in assay [1] was greater than 64 µg/mL; in assay [2] it was 64 µg/mL (≈ 139 µM); in [3], greater than 64 µg/mL; in [4] it was greater than 64 µg/mL; in assay [5] it was greater than 64 µg/mL; in assay [6] it was greater than 64 µg/mL. In addition, the MIC in assay [7], in assay [8] and in assay [9] was greater than 64 µg/mL throughout.
`Cc1cc(/C=C2\S/C(=N/c3nccs3)NC2=O)c(C)n1-c1ccccc1`: the MIC in [1] is greater than 64 µg/mL; in [2] it was 2 µg/mL (≈ 5.26 µM); in [3] it was greater than 64 µg/mL; in assay [4] it was greater than 64 µg/mL; in [5], greater than 64 µg/mL; in [6], 8 µg/mL (≈ 21 µM). Further, the MIC in assay [7], in [8] and in [9] was greater than 64 µg/mL throughout.
For `Cc1nc(/N=C2\NC(=O)/C(=C/c3cc(C)n(-c4ccc(Cl)cc4)c3C)S2)sc1C`, the MIC in [1], in assay [2], in assay [3], in [4], in assay [5] and in assay [6] was greater than 64 µg/mL throughout. Also, the MIC in [7], in [8] and in assay [9] was greater than 64 µg/mL each time.
With `Cc1nc(/N=C2\NC(=O)/C(=C/c3cc(C)n(-c4ccc(F)cc4)c3C)S2)sc1C`, the MIC in assay [1] is greater than 64 µg/mL; in assay [2] it was greater than 64 µg/mL; in [3] it was greater than 64 µg/mL; in assay [4], greater than 64 µg/mL; in [5], greater than 64 µg/mL; in [6], 16 µg/mL (≈ 37.5 µM). The MIC in assay [7], in assay [8] and in assay [9] was greater than 64 µg/mL throughout.
Turning to `Cc1cc(/C=C2\S/C(=N/c3nccs3)NC2=O)c(C)n1-c1cc(Cl)ccc1O`, the MIC in [1] is greater than 64 µg/mL; in assay [2], 1 µg/mL (≈ 2.32 µM); in assay [3] it was greater than 64 µg/mL; in assay [4], greater than 64 µg/mL; in assay [5], greater than 64 µg/mL; in [6], 32 µg/mL (≈ 74.3 µM). For the same compound, the MIC in [7], in assay [8] and in assay [9] was greater than 64 µg/mL in each case.
With `Cc1nc(/N=C2\NC(=O)/C(=C/c3cc(C)n(-c4ccccc4O)c3C)S2)sc1C`, the MIC in [1], in assay [2], in assay [3], in assay [4], in assay [5] and in [6] was greater than 64 µg/mL each time. Also, the MIC in assay [7], in assay [8] and in assay [9] was greater than 64 µg/mL each time.
Regarding `Cc1cc(/C=C2\S/C(=N/c3nccs3)NC2=O)c(C)n1-c1cccc(F)c1`, the MIC in [1] is greater than 64 µg/mL; in [2], 1 µg/mL (≈ 2.51 µM); in [3], greater than 64 µg/mL; in [4], greater than 64 µg/mL; in [5] it was greater than 64 µg/mL; in assay [6] it was 8 µg/mL (≈ 20.1 µM). Also, the MIC in assay [7], in assay [8] and in assay [9] was greater than 64 µg/mL in each case.
Turning to `Cc1ccc(-n2c(C)cc(/C=C3\S/C(=N/c4nccs4)NC3=O)c2C)cc1`, the MIC in assay [1] was greater than 64 µg/mL; in [2], 4 µg/mL (≈ 10.1 µM); in [3], greater than 64 µg/mL; in assay [4], greater than 64 µg/mL; in [5] it was greater than 64 µg/mL; in assay [6], 8 µg/mL (≈ 20.3 µM). For the same compound, the MIC in assay [7], in assay [8] and in assay [9] was greater than 64 µg/mL throughout.
Consider `Cc1cc(/C=C2\S/C(=N/c3nccs3)NC2=O)c(C)n1-c1ccc(F)cc1`, for which the MIC in [1] was greater than 64 µg/mL; in [2] it was greater than 64 µg/mL; in assay [3], greater than 64 µg/mL; in assay [4], greater than 64 µg/mL; in assay [5] it was greater than 64 µg/mL; in assay [6] it was 4 µg/mL (≈ 10 µM). Also, the MIC in assay [7], in assay [8] and in assay [9] was greater than 64 µg/mL each time.
In the case of `COc1ccc(-n2c(C)cc(/C=C3\S/C(=N/c4nccs4)NC3=O)c2C)cc1`, the MIC is greater than 64 µg/mL in assay [1]; 2 µg/mL (≈ 4.87 µM) in [2]; greater than 64 µg/mL in [3]; greater than 64 µg/mL in assay [4]; greater than 64 µg/mL in assay [5]; 64 µg/mL (≈ 156 µM) in assay [6]. The MIC in assay [7], in assay [8] and in assay [9] was greater than 64 µg/mL each time.
Take `Cc1nc(/N=C2\NC(=O)/C(=C/c3cc(C)n(-c4ccccc4Br)c3C)S2)sc1C`: the MIC was greater than 64 µg/mL in assay [1]; greater than 64 µg/mL in assay [2]; greater than 64 µg/mL in assay [3]; greater than 64 µg/mL in assay [4]; greater than 64 µg/mL in assay [5]; 4 µg/mL (≈ 8.21 µM) in assay [6]. Further, the MIC in assay [7], in assay [8] and in [9] was greater than 64 µg/mL in each case.
Take `COc1ccc(-n2c(C)cc(/C=C3\S/C(=N/c4nc(C)c(C)s4)NC3=O)c2C)cc1`: the minimal inhibitory concentration (MIC) in assay [1], in [2], in assay [3], in [4], in [5] and in assay [6] was greater than 64 µg/mL in each case. Besides, the MIC in assay [7], in assay [8] and in [9] was greater than 64 µg/mL each time.
On to `Cc1ccc(-n2c(C)cc(/C=C3\S/C(=N/c4nc(C)c(C)s4)NC3=O)c2C)cc1`, for which the MIC in [1], in [2], in [3], in assay [4], in [5] and in assay [6] was greater than 64 µg/mL throughout. Besides, the MIC in assay [7], in assay [8] and in [9] was greater than 64 µg/mL each time.
In the case of `COc1ccccc1-n1c(C)cc(/C=C2\S/C(=N/c3nc(C)c(C)s3)NC2=O)c1C`, the MIC in assay [1], in assay [2], in assay [3], in assay [4], in assay [5] and in [6] was greater than 64 µg/mL throughout. Further, the MIC in [7], in assay [8] and in [9] was greater than 64 µg/mL each time.
For the compound `Cc1cc(/C=C2\S/C(=N/c3nccs3)NC2=O)c(C)n1-c1cccc(Cl)c1`, the MIC in assay [1] is greater than 64 µg/mL; in [2], 8 µg/mL (≈ 19.3 µM); in assay [3], greater than 64 µg/mL; in assay [4] it was greater than 64 µg/mL; in [5], greater than 64 µg/mL; in assay [6], greater than 64 µg/mL. Further, the MIC in [7], in assay [8] and in [9] was greater than 64 µg/mL each time.
In the case of `Cc1nc(/N=C2\NC(=O)/C(=C/c3cc(C)n(-c4ccc([N+](=O)[O-])c(C(F)(F)F)c4)c3C)S2)sc1C`, the MIC in [1] is greater than 64 µg/mL; in [2] it was 16 µg/mL (≈ 30.7 µM); in assay [3], greater than 64 µg/mL; in assay [4] it was greater than 64 µg/mL; in [5] it was greater than 64 µg/mL; in [6] it was greater than 64 µg/mL. Moreover, the MIC in assay [7], in assay [8] and in assay [9] was greater than 64 µg/mL throughout.
As for `Cc1nc(/N=C2\NC(=O)/C(=C/c3cc(C)n(-c4ccc(C#N)c(Cl)c4)c3C)S2)sc1C`, the MIC in assay [1], in assay [2], in assay [3], in [4], in assay [5] and in assay [6] was greater than 64 µg/mL throughout. The minimum inhibitory concentration (MIC) in assay [7], in assay [8] and in [9] was greater than 64 µg/mL in each case.
`Cc1nc(/N=C2\NC(=O)/C(=C/c3cc(C)n(-c4ccccc4)c3C)S2)sc1C`: the MIC in assay [1], in assay [2], in assay [3], in assay [4], in assay [5] and in [6] was greater than 64 µg/mL in each case. Also, the MIC in assay [7], in assay [8] and in [9] was greater than 64 µg/mL throughout.

For the origin of these results see ChEMBL document CHEMBL5634099, “Pyrrole-thiazolidinone hybrids as a new structural class of broad-spectrum anti-infectives” (Eur J Med Chem, 2023).
